Reference: patent publication US4479951A, “1.4;3.6-Dianhydrohexitol nitrates substituted by purine bases, processes for their preparation and pharmaceutical compositions” (Dr. Willmar Schwabe GmbH & Co., priority 1980, dated 1984)

Test system: mongrel dogs
Assay: circulatory-pharmacological effectiveness on the narcotised dog, intravenous administration
Assay type: in vivo

Nc1ncnc2c1ncn2[C@H]1CO[C@H]2[C@@H]1OC[C@@H]2O[N+](=O)[O-] [1c/2c, 5-(9-Adenyl)-5-desoxy-1.4;3.6-dianhydro-L-iditol 2-nitrate]
APdiast: diastolic aorta pressure (15 min after i.v. 1 mg/kg): 80.6 mm.Hg
APsyst: systolic aorta pressure (15 min after i.v. 1 mg/kg): 120.4 mm.Hg
BFFem: blood flow in the A. femoralis, referred to 20 kg. body weight (15 min after i.v. 1 mg/kg): 39.9 mL/min
HF: heart frequency (15 min after i.v. 1 mg/kg): 133.0 min⁻¹
HLL: heart capacity left, referred to 20 kg. body weight (15 min after i.v. 1 mg/kg): 0.72 W
HLR: heart capacity right, referred to 20 kg. body weight (15 min after i.v. 1 mg/kg): 87.3 mW
HZV: heart minute volume, referred to 20 kg. body weight (15 min after i.v. 1 mg/kg): 3.61 L/min
LVEDP: end diastolic pressure in the left ventricle (15 min after i.v. 1 mg/kg): 3.37 mm.Hg
PAP: average pressure in the A. pulmonalis (15 min after i.v. 1 mg/kg): 14.0 ±1.9 mm.Hg
PRA: pressure in the right atrium (15 min after i.v. 1 mg/kg): 3.24 mm.Hg
SV: beat volume, referred to 20 kg. body weight (15 min after i.v. 1 mg/kg): 29.3 mL
WAP: pulmonalis resistance, referred to 20 kg. body weight (15 min after i.v. 1 mg/kg): 0.40 U
WFem: femoralis resistance, referred to 20 kg. body weight (15 min after i.v. 1 mg/kg): 0.32 KU
WTP: total peripheral resistance, referred to 20 kg. body weight (15 min after i.v. 1 mg/kg): 3.41 U
dp/dt: rate of pressure increase in the left ventricle (15 min after i.v. 1 mg/kg): 2250.0 mm.Hg/sec.
APdiast: diastolic aorta pressure (20 min after i.v. 1 mg/kg): 79.1 mm.Hg
APsyst: systolic aorta pressure (20 min after i.v. 1 mg/kg): 121.5 mm.Hg
BFFem: blood flow in the A. femoralis, referred to 20 kg. body weight (20 min after i.v. 1 mg/kg): 41.2 mL/min
HF: heart frequency (20 min after i.v. 1 mg/kg): 129.7 min⁻¹
HLL: heart capacity left, referred to 20 kg. body weight (20 min after i.v. 1 mg/kg): 0.72 W
HLR: heart capacity right, referred to 20 kg. body weight (20 min after i.v. 1 mg/kg): 87.7 mW
HZV: heart minute volume, referred to 20 kg. body weight (20 min after i.v. 1 mg/kg): 3.66 L/min
LVEDP: end diastolic pressure in the left ventricle (20 min after i.v. 1 mg/kg): 3.56 mm.Hg
PAP: average pressure in the A. pulmonalis (20 min after i.v. 1 mg/kg): 13.8 ±1.7 mm.Hg
PRA: pressure in the right atrium (20 min after i.v. 1 mg/kg): 3.30 mm.Hg
SV: beat volume, referred to 20 kg. body weight (20 min after i.v. 1 mg/kg): 30.0 mL
WAP: pulmonalis resistance, referred to 20 kg. body weight (20 min after i.v. 1 mg/kg): 0.37 U
WFem: femoralis resistance, referred to 20 kg. body weight (20 min after i.v. 1 mg/kg): 0.31 KU
WTP: total peripheral resistance, referred to 20 kg. body weight (20 min after i.v. 1 mg/kg): 3.32 U
dp/dt: rate of pressure increase in the left ventricle (20 min after i.v. 1 mg/kg): 2231.2 mm.Hg/sec.
APdiast: diastolic aorta pressure (25 min after i.v. 1 mg/kg): 80.6 mm.Hg
APsyst: systolic aorta pressure (25 min after i.v. 1 mg/kg): 122.8 mm.Hg
BFFem: blood flow in the A. femoralis, referred to 20 kg. body weight (25 min after i.v. 1 mg/kg): 42.2 mL/min
HF: heart frequency (25 min after i.v. 1 mg/kg): 125.7 min⁻¹
HLL: heart capacity left, referred to 20 kg. body weight (25 min after i.v. 1 mg/kg): 0.74 W
HLR: heart capacity right, referred to 20 kg. body weight (25 min after i.v. 1 mg/kg): 90.0 mW
HZV: heart minute volume, referred to 20 kg. body weight (25 min after i.v. 1 mg/kg): 3.7 L/min
LVEDP: end diastolic pressure in the left ventricle (25 min after i.v. 1 mg/kg): 4.03 mm.Hg
PAP: average pressure in the A. pulmonalis (25 min after i.v. 1 mg/kg): 14.0 ±1.8 mm.Hg
PRA: pressure in the right atrium (25 min after i.v. 1 mg/kg): 3.28 mm.Hg
SV: beat volume, referred to 20 kg. body weight (25 min after i.v. 1 mg/kg): 31.3 mL
WAP: pulmonalis resistance, referred to 20 kg. body weight (25 min after i.v. 1 mg/kg): 0.36 U
WFem: femoralis resistance, referred to 20 kg. body weight (25 min after i.v. 1 mg/kg): 0.31 KU
WTP: total peripheral resistance, referred to 20 kg. body weight (25 min after i.v. 1 mg/kg): 3.33 U
dp/dt: rate of pressure increase in the left ventricle (25 min after i.v. 1 mg/kg): 2175.0 mm.Hg/sec.
APdiast: diastolic aorta pressure (30 min after i.v. 1 mg/kg): 79.7 mm.Hg
APsyst: systolic aorta pressure (30 min after i.v. 1 mg/kg): 122.8 mm.Hg
BFFem: blood flow in the A. femoralis, referred to 20 kg. body weight (30 min after i.v. 1 mg/kg): 43.9 mL/min
HF: heart frequency (30 min after i.v. 1 mg/kg): 122.7 min⁻¹
HLL: heart capacity left, referred to 20 kg. body weight (30 min after i.v. 1 mg/kg): 0.73 W
HLR: heart capacity right, referred to 20 kg. body weight (30 min after i.v. 1 mg/kg): 84.9 mW
HZV: heart minute volume, referred to 20 kg. body weight (30 min after i.v. 1 mg/kg): 3.63 L/min
LVEDP: end diastolic pressure in the left ventricle (30 min after i.v. 1 mg/kg): 4.31 mm.Hg
PAP: average pressure in the A. pulmonalis (30 min after i.v. 1 mg/kg): 14.1 ±1.8 mm.Hg
PRA: pressure in the right atrium (30 min after i.v. 1 mg/kg): 3.52 mm.Hg
SV: beat volume, referred to 20 kg. body weight (30 min after i.v. 1 mg/kg): 31.6 mL
WAP: pulmonalis resistance, referred to 20 kg. body weight (30 min after i.v. 1 mg/kg): 0.36 U
WFem: femoralis resistance, referred to 20 kg. body weight (30 min after i.v. 1 mg/kg): 0.29 KU
WTP: total peripheral resistance, referred to 20 kg. body weight (30 min after i.v. 1 mg/kg): 3.32 U
dp/dt: rate of pressure increase in the left ventricle (30 min after i.v. 1 mg/kg): 2184.4 mm.Hg/sec.
